Reference: ChEMBL document CHEMBL3259781 (J Med Chem, 2014)
Values after ≈ are worked out from the molar mass of the structure shown. Blank lines part the entries; values can stand above or below the molecule they belong to.

Tests used:
[1] = target: T1, Adenosine receptor A2a (Homo sapiens, UniProt P29274); experiment: Inhibition of human recombinant adenosine receptor A2a at 10 nM
[2] = target: T1, Adenosine receptor A2a; experiment: Inhibition of human recombinant adenosine receptor A2a at 100 nM
[3] = target: T2, Adenosine receptor A2b (Homo sapiens) (UniProt P29275); experiment: Inhibition of human recombinant adenosine receptor A2b at 1 uM
T2 sequence (whole entry): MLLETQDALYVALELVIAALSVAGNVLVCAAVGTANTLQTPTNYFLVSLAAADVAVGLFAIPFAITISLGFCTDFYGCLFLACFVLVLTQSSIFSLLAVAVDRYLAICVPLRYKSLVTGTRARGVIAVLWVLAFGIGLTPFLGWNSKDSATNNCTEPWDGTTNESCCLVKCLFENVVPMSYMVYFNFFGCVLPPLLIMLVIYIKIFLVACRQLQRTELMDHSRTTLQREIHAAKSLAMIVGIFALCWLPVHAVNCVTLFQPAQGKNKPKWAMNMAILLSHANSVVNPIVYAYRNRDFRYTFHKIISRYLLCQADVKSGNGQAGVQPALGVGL

[4] = target: T2, Adenosine receptor A2b (Homo sapiens); experiment: Inhibition of human recombinant adenosine receptor A2b at 10 uM
[5] = target: T3, Adenosine receptor A1 (Homo sapiens) (UniProt P30542); experiment: Inhibition of human recombinant adenosine A1 receptor at 1 uM
T3 sequence (whole entry): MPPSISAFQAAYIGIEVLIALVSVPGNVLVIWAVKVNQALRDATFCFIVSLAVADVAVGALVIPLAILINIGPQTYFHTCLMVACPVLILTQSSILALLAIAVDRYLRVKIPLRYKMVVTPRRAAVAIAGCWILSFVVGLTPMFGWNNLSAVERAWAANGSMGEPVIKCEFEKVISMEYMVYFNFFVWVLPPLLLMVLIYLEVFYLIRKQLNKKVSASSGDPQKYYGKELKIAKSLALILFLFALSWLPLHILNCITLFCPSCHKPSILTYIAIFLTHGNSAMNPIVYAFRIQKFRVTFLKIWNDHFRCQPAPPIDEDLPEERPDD

[6] = target: T3, Adenosine receptor A1 (Homo sapiens); experiment: Inhibition of human recombinant adenosine A1 receptor at 10 uM
[7] = system: Mus musculus; experiment: Anticataleptic activity in mouse assessed as inhibition of CGS21680-induced catalepsy at 10 mg/kg, po; type: functional
[8] = species: Rattus norvegicus; experiment: Selectivity ratio of Ki for rat striatal adenosine A1 receptor to Ki for rat recombinant adenosine receptor A2a
[9] = species: Homo sapiens; experiment: Selectivity ratio of Ki for human recombinant adenosine A1 receptor to Ki for human recombinant adenosine receptor A2a
[10] = target: T4, Adenosine receptor A1 (Homo sapiens, UniProt P30542)
T4 sequence (P30542 whole entry): T3 sequence (whole entry)

[11] = target: T5, Adenosine receptor A2b (Homo sapiens, UniProt P29275)
T5 sequence (P29275 whole entry): T2 sequence (whole entry)

[12] = target: T6, Adenosine receptor A3 (Homo sapiens, UniProt P0DMS8); experiment: Binding affinity to human recombinant adenosine A3 receptor
T6 sequence (P0DMS8 whole entry): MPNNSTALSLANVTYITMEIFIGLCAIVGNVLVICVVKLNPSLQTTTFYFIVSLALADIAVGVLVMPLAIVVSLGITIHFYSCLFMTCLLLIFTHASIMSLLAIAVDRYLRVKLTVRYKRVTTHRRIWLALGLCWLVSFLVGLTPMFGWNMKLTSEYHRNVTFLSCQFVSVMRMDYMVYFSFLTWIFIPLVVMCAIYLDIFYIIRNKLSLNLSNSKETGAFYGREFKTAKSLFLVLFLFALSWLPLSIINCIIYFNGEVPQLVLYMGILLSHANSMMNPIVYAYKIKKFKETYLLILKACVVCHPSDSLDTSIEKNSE

[13] = target: T1, Adenosine receptor A2a
[14] = target: T4, Adenosine receptor A1; remark: listed apart in the source
[15] = target: T1, Adenosine receptor A2a; remark: listed apart in the source
[16] = target: T7, Adenosine receptor A1 (Rattus norvegicus, UniProt P25099)
T7 sequence (P25099 whole entry): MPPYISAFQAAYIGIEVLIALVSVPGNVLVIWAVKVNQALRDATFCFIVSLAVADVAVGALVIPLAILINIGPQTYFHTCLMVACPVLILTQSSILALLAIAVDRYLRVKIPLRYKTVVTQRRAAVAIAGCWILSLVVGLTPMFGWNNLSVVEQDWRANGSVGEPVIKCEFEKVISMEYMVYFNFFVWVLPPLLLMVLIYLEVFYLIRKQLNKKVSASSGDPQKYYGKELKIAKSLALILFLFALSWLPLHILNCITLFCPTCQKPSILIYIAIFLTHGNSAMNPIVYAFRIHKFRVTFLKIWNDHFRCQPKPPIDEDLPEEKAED

[17] = Oral bioavailability in rat; type: ADME, organism-based; details: in vivo
[18] = system: Mus musculus; experiment: Anticataleptic activity in po dosed mouse assessed as inhibition of haloperidol-induced catalepsy; type: functional
[19] = species: Rattus norvegicus; experiment: Anticataleptic activity in rat assessed as minimum efficacious dose; type: functional; details: read-out: MED
[20] = system: Rattus norvegicus; experiment: Anticataleptic activity in po dosed rat assessed as inhibition of haloperidol-induced catalepsy; type: functional
[21] = system: Rattus norvegicus; experiment: Anticataleptic activity in rat assessed as inhibition at 3 mg/kg, po after 1 hr; type: functional
[22] = system: Rattus norvegicus; experiment: Anticataleptic activity in rat assessed as inhibition at 1 mg/kg, po after 1 hr; type: functional; details: Rattus norvegicus, po, 1 h
[23] = Plasma clearance in rat; type: ADME, organism-based
[24] = Solubility of the compound in water pH 7.4; type: physicochemical
[25] = Half life in rat; type: ADME, organism-based; details: in vivo
[26] = system: Rattus norvegicus; experiment: Anticataleptic activity in rat assessed as inhibition at 1 mg/kg, po after 4 hrs; type: functional; details: Rattus norvegicus, po, 4 h

T1 sequence (P29274 whole entry): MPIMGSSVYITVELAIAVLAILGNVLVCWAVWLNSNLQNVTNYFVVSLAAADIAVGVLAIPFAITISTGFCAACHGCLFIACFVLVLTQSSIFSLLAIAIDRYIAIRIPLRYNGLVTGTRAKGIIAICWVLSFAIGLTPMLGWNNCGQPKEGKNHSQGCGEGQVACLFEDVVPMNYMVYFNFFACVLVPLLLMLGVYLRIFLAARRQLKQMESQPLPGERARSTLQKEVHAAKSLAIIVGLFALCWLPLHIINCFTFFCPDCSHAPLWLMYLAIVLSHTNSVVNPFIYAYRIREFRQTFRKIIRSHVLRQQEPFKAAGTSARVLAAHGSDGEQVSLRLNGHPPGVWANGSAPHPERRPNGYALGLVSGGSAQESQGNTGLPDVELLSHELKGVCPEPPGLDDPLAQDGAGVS

inhibition [1]: 39% | inhibition [2]: 81% | inhibition [3]: 81% | inhibition [4]: 98% | inhibition [5]: 37% | inhibition [6]: 82%
Structure (SMILES): COc1ccc(-c2ccccc2)c2cc(C(=O)N3CCOCC3)oc12
inhibition in vivo at 10 mg/kg [7]: 78%

Ratio Ki [8]: 3.4
Structure (SMILES): CC(O)(C#Cc1cn2nc(-c3ccco3)nc2c(N)n1)c1ccccc1 (centres undefined)

Ratio Ki [9]: 620 | Ki [10]: 1120 nM
Structure (SMILES): CN(CCN1CCN(c2ccc(F)cc2F)CC1)c1cc2nc(-c3cccc(C#N)c3)nn2c(N)n1

Ki [11]: 7070 nM
Structure (SMILES): O[C@H](c1cc(C(F)(F)F)nc2c(C(F)(F)F)cccc12)[C@@H]1CCCCN1 [(R,S)-MEFLOQUINE]

Ki [12]: 19 nM | Ki [13]: 180 nM | Ki [14]: 1.39 nM
Structure (SMILES): Nc1nc(Cl)nc2c1ncn2[C@@H]1O[C@H](CO)[C@@H](O)[C@H]1O

Ratio Ki [9]: 222
Structure (SMILES): Cc1cc(C)n(-c2cc(NC(=O)CN3CCN(C)CC3)nc(-c3nccs3)n2)n1

Ratio Ki [9]: 351 | Ki [15]: 25 nM | Ki [10]: 8780 nM
Structure (SMILES): COc1ccc(C2CCOCC2)c2oc(NC(=O)c3ccnc(N4CCOCC4)c3)nc12

Ratio Ki [9]: 108 | Ki [10]: 1360 nM
Structure (SMILES): COCCOc1ccc(N2CCN(CCn3cnc4c3nc(N)n3nc(-c5ccccn5)nc43)CC2)cc1

Structure (SMILES): COc1ccc(N2CCOCC2)c2cc(C(=O)Nc3ccncc3)oc12
inhibition in vivo at 10 mg/kg [7]: 76%

Ratio Ki [8]: 63 | Ki [16]: > 250 nM
Structure (SMILES): Nc1nc(NC[C@H]2CCCN2Cc2ccnc(Cl)c2)nc2nc(-c3ccco3)nn12

Ratio Ki [9]: 148 | bioavailability [17]: 5.8%
Structure (SMILES): CC(C)c1nc(-c2nccs2)c2sccc2n1

Structure (SMILES): Nc1nc(-c2ccccc2)c2c(n1)-c1cc(NCCN3CCOCC3)ccc1C2=O
ED50 [18]: < 0.1 mg/kg

Structure (SMILES): COC(=O)Nc1cc2c(-c3ccccc3)ccc(OC)c2o1
inhibition in vivo at 10 mg/kg [7]: 86%

Structure (SMILES): Cc1cc(Cn2nnc3c(-c4ccco4)nc(N)nc32)ccc1N [VIPADENANT]
minimal effective dose [19]: 0.1 mg/kg

Ki [10]: 40 nM
Structure (SMILES): Cc1cc(C)n(-c2cc(NC(=O)COc3cccc(CN(C)C)c3)nc(-c3ccc(C)o3)n2)n1
ED50 [20]: 10 mg/kg

Structure (SMILES): Nc1nc(-c2ccccc2)c2c(n1)-c1cc(OCCN3CCOCC3)ccc1C2=O
ED50 [18]: 0.3 mg/kg

clearance [23]: 4.7 mL/min/kg | solubility [24]: 100 µM (≈ 41.5 µg/mL) | half-life [25]: 11.3 h | Ki [10]: 358 nM
Structure (SMILES): Cc1cnc2c(c1)CN(CCn1ncc3c1nc(N)n1nc(-c4ccco4)nc31)CC2
inhibition in vivo at 3 mg/kg [21]: 80% | inhibition in vivo at 1 mg/kg [22]: 65%

Ratio Ki [9]: 617 | Ki [10]: 10000 nM
Structure (SMILES): CC1CN(c2nnc(N)nc2-c2ccccc2)CC(C)O1 (centres undefined)

Ratio Ki [9]: 420 | Ki [15]: 5 nM | Ki [10]: 2100 nM
Structure (SMILES): COc1cnc(N2CCOCC2)c2sc(NC(=O)c3ccc(F)cc3)nc12

Structure (SMILES): Nc1nc(-c2ccco2)c2c(n1)-c1ccccc1C2=O
ED50 [18]: 5 mg/kg

Ratio Ki [9]: 17 | Ki [10]: 10.2 nM
Structure (SMILES): CC(=O)Nc1cc(-n2cccn2)nc(-c2ccco2)n1

Ratio Ki [9]: 669 | Ki [10]: 602 nM
Structure (SMILES): COCCOc1ccc(N2CCN(CCn3cnc4c3nc(N)n3nc(-c5ccco5)nc43)CC2)cc1
inhibition in vivo at 1 mg/kg [22]: 55% | inhibition in vivo at 1 mg/kg [26]: 50%
